Measurements taken from the supplement of paper PMC11451515.

Test system: P12-Ichikawa
Assay: cell viability relative to DMSO control; higher = less cytotoxic
Conditions: 48 h
Outline: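 Viability is expressed as a percentage of DMSO wells within each plate, and cell-free wells serve as background. Seeding densities in the 1536-well plates (5 μl) were 500 cells/well for NOMO1 or SEM leukemia cells and 1000 cells/well for P12-Ichikawa. Each line was adapted for at least four passages in each medium. Library compounds in DMSO were pin-dosed at 47 μM to 0.79 nM (11 points, threefold), and CellTiter-Glo One luminescence was read after 48 h at 37°C.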

[1] = HPLM + 10% dialyzed FBS, 0.000781 µM
[2] = HPLM + 10% dialyzed FBS, 0.00234 µM
[3] = HPLM + 10% dialyzed FBS, 0.00702 µM
[4] = HPLM + 10% dialyzed FBS, 0.0211 µM
[5] = HPLM + 10% dialyzed FBS, 0.0632 µM
[6] = HPLM + 10% dialyzed FBS, 0.19 µM
[7] = HPLM + 10% dialyzed FBS, 0.569 µM
[8] = HPLM + 10% dialyzed FBS, 1.71 µM
[9] = HPLM + 10% dialyzed FBS, 5.12 µM
[10] = HPLM + 10% dialyzed FBS, 15.4 µM
[11] = HPLM + 10% dialyzed FBS, 46.1 µM
[12] = RPMI 5 mM glucose + 10% FBS, 0.000781 µM
[13] = RPMI 5 mM glucose + 10% FBS, 0.00234 µM
[14] = RPMI 5 mM glucose + 10% FBS, 0.00702 µM
[15] = RPMI 5 mM glucose + 10% FBS, 0.0211 µM
[16] = RPMI 5 mM glucose + 10% FBS, 0.0632 µM
[17] = RPMI 5 mM glucose + 10% FBS, 0.19 µM
[18] = RPMI 5 mM glucose + 10% FBS, 0.569 µM
[19] = RPMI 5 mM glucose + 10% FBS, 1.71 µM
[20] = RPMI 5 mM glucose + 10% FBS, 5.12 µM
[21] = RPMI 5 mM glucose + 10% FBS, 15.4 µM
[22] = RPMI 5 mM glucose + 10% FBS, 46.1 µM
[23] = RPMI 5 mM glucose + 10% dialyzed FBS, 0.000781 µM
[24] = RPMI 5 mM glucose + 10% dialyzed FBS, 0.00234 µM
[25] = RPMI 5 mM glucose + 10% dialyzed FBS, 0.00702 µM
[26] = RPMI 5 mM glucose + 10% dialyzed FBS, 0.0211 µM
[27] = RPMI 5 mM glucose + 10% dialyzed FBS, 0.0632 µM
[28] = RPMI 5 mM glucose + 10% dialyzed FBS, 0.19 µM
[29] = RPMI 5 mM glucose + 10% dialyzed FBS, 0.569 µM
[30] = RPMI 5 mM glucose + 10% dialyzed FBS, 1.71 µM
[31] = RPMI 5 mM glucose + 10% dialyzed FBS, 5.12 µM
[32] = RPMI 5 mM glucose + 10% dialyzed FBS, 15.4 µM
[33] = RPMI 5 mM glucose + 10% dialyzed FBS, 46.1 µM

Row | Compound | cell viability [1] | cell viability [2] | cell viability [3] | cell viability [4] | cell viability [5] | cell viability [6] | cell viability [7] | cell viability [8] | cell viability [9] | cell viability [10] | cell viability [11] | cell viability [12] | cell viability [13] | cell viability [14] | cell viability [15] | cell viability [16] | cell viability [17] | cell viability [18] | cell viability [19] | cell viability [20] | cell viability [21] | cell viability [22] | cell viability [23] | cell viability [24] | cell viability [25] | cell viability [26] | cell viability [27] | cell viability [28] | cell viability [29] | cell viability [30] | cell viability [31] | cell viability [32] | cell viability [33]
1 | C[C@H](NC(=O)[C@@H](O)c1cc(F)cc(F)c1)C(=O)N[C@@H]1C(=O)N(C)c2ccccc2-c2ccccc21 | 118% | 116% | 111% | 119% | 106% | 108% | 105% | 101% | 96.8% | 102% | 90.1% | 114% | 116% | 119% | 115% | 114% | 111% | 102% | 90.5% | 99.8% | 101% | 94.3% | 114% | 110% | 109% | 109% | 106% | 101% | 99.6% | 106% | 95.8% | 94.3% | 78.5%
2 | COc1cc2c(cc1O)CCC1C2CC[C@@]2(C)C1CC[C@@H]2O (stereo partly specified) | 116% | 120% | 118% | 89.9% | 120% | 112% | 114% | 65.1% | 31.8% | 17.9% | 15.8% |  |  |  |  |  |  |  |  |  |  |  | 120% | 125% | 115% | 114% | 126% | 120% | 115% | 96.3% | 47% | 27.8% | 26.2%
3 | COc1c(N2C[C@@H]3CCCN[C@@H]3C2)c(F)cc2c(=O)c(C(=O)O)cn(C3CC3)c12.Cl.O | 98.4% | 114% | 107% | 109% | 103% | 114% | 102% | 99.4% | 78.9% | 63% | 70.6% | 116% | 112% | 109% | 112% | 106% | 107% | 91.9% | 92.2% | 53.8% | 12.9% | 54% | 98.7% | 99.5% | 107% | 109% | 98.6% | 97% | 91% | 88.5% | 53.4% | 17.5% | 42.3%
4 | Cc1noc(N[S+](=O)([O-])c2ccc(N)cc2)c1C | 99.4% | 106% | 104% | 112% | 115% | 109% | 111% | 114% | 109% | 102% | 117% | 85.2% | 102% | 97.6% | 91.2% | 99.8% | 105% | 98.1% | 94.1% | 102% | 96.8% | 100% | 92.4% | 90.5% | 99.5% | 89.7% | 106% | 106% | 108% | 99.3% | 101% | 94.1% | 98.9%
5 | NC(=O)c1nnn(Cc2cc(Cl)c(C(=O)c3ccc(Cl)cc3)c(Cl)c2)c1N |  |  |  |  |  |  |  |  |  |  |  | 122% | 137% | 122% | 130% | 128% | 128% | 136% | 120% | 120% | 122% | 70.9% | 122% | 128% | 122% | 134% | 123% | 119% | 131% | 121% | 109% | 118% | 68%
6 | CC(C)(Sc1cc(C(C)(C)C)c(O)c(C(C)(C)C)c1)Sc1cc(C(C)(C)C)c(O)c(C(C)(C)C)c1 | 88.5% | 84.4% | 90% | 96.2% | 94.1% | 91% | 95.7% | 89.4% | 97% | 99.7% | 99.9% | 80.2% | 77.9% | 87.2% | 85.6% | 83.9% | 92.8% | 93.7% | 85.4% | 79.2% | 92.8% | 92.8% | 79.2% | 85.3% | 82.3% | 85.6% | 87.8% | 87.6% | 84.7% | 87.2% | 81.3% | 81.2% | 88.4%
7 | CN(C)c1ccc(-c2nc3c(N4CCN(CC(=O)Nc5nccs5)CC4)c(Cl)cnc3[nH]2)cc1 | 109% | 107% | 118% | 110% | 113% | 117% | 115% | 109% | 108% | 102% | 103% | 113% | 114% | 116% | 131% | 109% | 125% | 111% | 115% | 118% | 95.9% | 103% |  |  |  |  |  |  |  |  |  |  | 
8 | COCC(=O)NC/C=C/c1ccc2ncnc(Nc3ccc(Oc4ccc(C)nc4)c(C)c3)c2c1 | 99.6% | 99.3% | 101% | 107% | 101% | 92.3% | 103% | 98.6% | 95.7% | 93.1% | 64.5% | 91.7% | 112% | 106% | 105% | 105% | 100% | 91.5% | 101% | 81.6% | 77.2% | 43.1% | 102% | 109% | 115% | 113% | 105% | 99% | 97.9% | 101% | 88% | 79.7% | 51.5%
